This is an account of results in paper PMC9577195, “Pharmacokinetics, bioavailability, and plasma protein binding study of glytrexate, a novel multitarget antifolate” (Frontiers in Pharmacology, 2022).

pIC50: −log10 of the molar value.

For one data set, the system named is KB tumor cells. Also on record: method as in Xing et al., 2017. The conditions noted are these: positive control, ref Xing et al., 2017, read-out: IC50, inhibitory action on KB tumor cells; cited from earlier work.
Data set [1] is described as follows: Pharmacokinetics and bioavailability in rats after single oral and intravenous doses. The format is in vivo, Sprague-Dawley rats. The conditions noted are these: rat, pemetrexed 20 mg/kg vs glytrexate 25 mg/kg.
In the next data set the test system is human plasma proteins. Also on record: method as in Robinson et al., 2004. The conditions noted are these: ref Robinson et al., 2004; cited from earlier work.
Details of data set [2]: method as in Pangeni et al., 2018. The conditions noted are these: rat, ref Pangeni et al., 2018, cited from earlier work.

For the compound `Nc1nc2[nH]cc(CCc3ccc(C(=O)N[C@@H](CCC(=O)O)C(=O)O)cc3)c2c(=O)[nH]1` [pemetrexed], the negative-log IC50 (pIC50) with KB tumor cells is 7.15. The “oral AUC of pemetrexed relative to oral glytrexate” value in data set [1] is reported as “approximately 12 fold”. In the data set with human plasma proteins, the “human plasma protein binding rate” value is given as 81%. For the same compound, the “AUC after intravenous administration” value in data set [2] (intravenous 10 mg/kg) is recorded as 31.3 ± 5.34 μg⋅h/mL. In addition, the “T1/2 after intravenous administration” value in data set [2] (intravenous) is 34.4 ± 4.26 min. In addition, the “AUC after oral administration” value in data set [2] (oral 20 mg/kg) is 7.55 ± 0.938 μg⋅h/mL. In data set [2], the oral bioavailability was 12.0 ± 1.45%.

The pIC50 is −log10 of the IC50, conventionally taken in molar units.
